Patent US11964953B2, “Substituted aminothiazoles as DGKzeta inhibitors for immune activation” (Bayer Aktiengesellschaft, priority 2020, dated 2024)

These compounds were tested against human DGKζ (Homo sapiens (Human), UniProt Q13574) (assay: Human DGKζ kinase activity inhibition assay (ADP-Glo)). Conditions: in vitro human DGKζ kinase activity inhibition assay; read-out: IC50.
human DGKζ, sequence (Q13574 other isoform, or with tags, fused parts or gaps): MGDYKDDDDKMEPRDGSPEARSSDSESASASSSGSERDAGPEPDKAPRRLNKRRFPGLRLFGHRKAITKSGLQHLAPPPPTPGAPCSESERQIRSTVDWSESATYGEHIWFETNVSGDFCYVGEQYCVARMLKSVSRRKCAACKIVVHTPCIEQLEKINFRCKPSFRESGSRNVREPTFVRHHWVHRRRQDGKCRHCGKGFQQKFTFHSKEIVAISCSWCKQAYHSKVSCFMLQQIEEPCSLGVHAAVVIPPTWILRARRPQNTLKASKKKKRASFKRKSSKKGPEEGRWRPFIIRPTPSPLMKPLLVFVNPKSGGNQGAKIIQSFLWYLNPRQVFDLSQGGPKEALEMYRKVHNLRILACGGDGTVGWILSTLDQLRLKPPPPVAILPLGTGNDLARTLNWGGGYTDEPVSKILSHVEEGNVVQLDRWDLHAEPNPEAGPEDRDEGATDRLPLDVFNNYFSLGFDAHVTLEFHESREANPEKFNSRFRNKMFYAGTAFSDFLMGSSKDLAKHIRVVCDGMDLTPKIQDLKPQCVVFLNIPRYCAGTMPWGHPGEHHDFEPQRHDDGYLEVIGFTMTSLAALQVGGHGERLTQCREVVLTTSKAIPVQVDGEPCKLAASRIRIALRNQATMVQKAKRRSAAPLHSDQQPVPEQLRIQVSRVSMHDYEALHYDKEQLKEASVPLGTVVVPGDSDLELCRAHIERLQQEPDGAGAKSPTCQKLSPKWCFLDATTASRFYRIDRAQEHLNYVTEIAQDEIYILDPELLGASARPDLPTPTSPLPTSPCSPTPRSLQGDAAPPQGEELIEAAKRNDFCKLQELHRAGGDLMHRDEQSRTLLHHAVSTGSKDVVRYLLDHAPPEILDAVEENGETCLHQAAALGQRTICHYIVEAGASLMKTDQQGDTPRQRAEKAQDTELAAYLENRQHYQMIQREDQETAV
Assay type: biochemical
Outline: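 Enzyme was C-terminally FLAG-tagged full-length recombinant human DGKζ from baculovirus-infected insect cells. Substrate preparation used octyl-β-D-glucopyranoside in 50 mM MOPS pH 7.4 with sonication; ADP generated was quantified by ADP-Glo luminescence as activity measure.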
Work on CC(C(N)=O)N(c1ccc(F)cc1)c1nc(N)c(C(=O)c2ccc(Br)cc2)s1 (racemic) [Example 80, rac-2-(N-[4-amino-5-(4-bromobenzoyl)thiazol-2-yl]-4-fluoro-anilino)propanamide] yielded an IC50 of 10.8 nM.
Work on CC(C(N)=O)N(c1ccc(F)cc1)c1nc(N)c(C(=O)c2ccc(OCC(=O)NCc3ccccc3Cl)cc2)s1 (racemic) [Example 120, rac-2-(N-[4-amino-5-[4-[2-[(2-chlorophenyl)methylamino]-2-oxo-ethoxy]benzoyl]thiazol-2-yl]-4-fluoro-anilino)propanamide] yielded an IC50 of 16.7 nM.
Work on COc1ccc(CNC(=O)COc2ccc(C(=O)c3sc(N(c4ccc(F)cc4)C(C)C(N)=O)nc3N)cc2)cc1 (racemic) [Example 124, rac-2-(N-[4-amino-5-[4-[2-[(4-methoxyphenyl)methylamino]-2-oxo-ethoxy]benzoyl]thiazol-2-yl]-4-fluoro-anilino)propanamide] yielded an IC50 of 48.3 nM.
Work on Cc1ccccc1N(c1nc(N)c(C(=O)c2ccccc2)s1)C(C)C(N)=O (single isomer, unassigned) [Example 77.1, 2-(N-(4-amino-5-benzoyl-thiazol-2-yl)-2-methyl-anilino)propanamide] yielded an IC50 of 234 nM.
CC(=O)Nc1ccc(C(=O)c2sc(N(c3ccc(F)cc3)C(C)C(N)=O)nc2N)cc1 (racemic) [Example 185, rac-2-(N-[5-(4-acetamidobenzoyl)-4-amino-thiazol-2-yl]-4-fluoro-anilino)propanamide] was tested, and the IC50 was 301 nM.
CC(C(N)=O)N(c1ccc(F)cc1)c1nc(N)c(C(=O)c2ccc(OCC(=O)Nc3ccc4ncccc4c3)cc2)s1 (racemic) [Example 108, rac-2-(N-(4-amino-5-[4-[2-oxo-2-(6-quinolylamino)ethoxy]benzoyl]thiazol-2-yl]-4-fluoro-anilino)propanamide] was tested, and the IC50 was 19.4 nM.
In the case of CC(C(N)=O)N(c1ccc(F)cc1)c1nc(N)c(C(=O)c2ccc(OCC(=O)N(C)Cc3ccco3)cc2)s1 (racemic) [Example 135, rac-2-(N-[4-amino-5-[4-[2-[2-furylmethyl(methyl)amino]-2-oxo-ethoxy]benzoyl]thiazol-2-yl]-4-fluoro-anilino)propanamide], the IC50 is reported as 49.5 nM.
For CC(=O)N1CCN(C(=O)COc2ccc(C(=O)c3sc(N(c4ccc(F)cc4)C(C)C(N)=O)nc3N)cc2)CC1 (racemic) [Example 114, rac-2-(N-[5-[4-[2-(4-acetylpiperazin-1-yl)-2-oxo-ethoxy]benzoyl]-4-amino-thiazol-2-yl]-4-fluoro-anilino)propanamide], the IC50 was 658 nM.
Compound COc1ccc(N(c2nc(N)c(C(=O)c3ccccc3)s2)C(C)C(N)=O)c(C)c1 (racemic) [Example 1, rac-2-(N-(4-amino-5-benzoyl-thiazol-2-yl)-4-methoxy-2-methyl-anilino)propanamide] has an IC50 of 946 nM.
Compound CC(C(N)=O)N(c1ccc(OC(F)F)c(Cl)c1)c1nc(N)c(C(=O)c2ccc(OC(F)F)nc2)s1 (racemic) [Example 204, rac-2-[N-[4-amino-5-[6-(difluoromethoxy)pyridine-3-carbonyl]thiazol-2-yl]-3-chloro-4-(difluoromethoxy)anilino]propanamide] has an IC50 of 73 nM.
In the case of CC(C(N)=O)N(c1ccc(C(F)F)cc1)c1nc(N)c(C(=O)c2ccc(OC(F)F)cc2)s1 (racemic) [Example 245, rac-2-[N-[4-amino-5-[4-(difluoromethoxy)benzoyl]thiazol-2-yl]-4-(difluoromethyl)anilino]propanamide], the IC50 is reported as 22 nM.
COc1ccc(C(=O)c2sc(N(c3ccc(OC(F)F)c(F)c3)C(C)C(N)=O)nc2N)cc1 (racemic) [Example 205, rac-2-[N-[4-amino-5-(4-methoxybenzoyl)thiazol-2-yl]-4-(difluoromethoxy)-3-fluoro-anilino]propanamide] showed an IC50 of 54 nM.
COc1ccc(C(=O)c2sc(N(c3ccc(C(F)F)cc3)C(C)C(N)=O)nc2N)cc1 (racemic) [Example 243, rac-2-[N-[4-amino-5-(4-methoxybenzoyl)thiazol-2-yl]-4-(difluoromethyl)anilino]propanamide] gave an IC50 of 51 nM.
CC(C(N)=O)N(c1ccc(OC(F)(F)F)nc1)c1nc(N)c(C(=O)c2ccc(Cl)cc2)s1 (racemic) [Example 249, rac-2-[[4-amino-5-(4-chlorobenzoyl)thiazol-2-yl]-[6-(trifluoromethoxy)-3-pyridyl]amino]propanamide] showed an IC50 of 120 nM.
Compound CC(C(N)=O)N(c1ccc(F)cc1)c1nc(N)c(C(=O)c2ccc(OCC(=O)NC3CCCC3)cc2)s1 (racemic) [Example 132, rac-2-(N-[4-amino-5-[4-[2-(cyclopentylamino)-2-oxo-ethoxy]benzoyl]thiazol-2-yl]-4-fluoro-anilino)propanamide] has an IC50 of 93.3 nM.
CC(C(N)=O)N(c1ccc(F)cc1)c1nc(N)c(C(=O)c2ccc(OCC(=O)Nc3ccc(C(N)=O)cc3)cc2)s1 (racemic) [Example 109, rac-4-[[2-[4-[4-amino-2-(N-[2-amino-1-methyl-2-oxo-ethyl]-4-fluoro-anilino)thiazole-5-carbonyl]phenoxy]acetyl]amino]benzamide] was tested, and the IC50 was 51.7 nM.
CC(C(N)=O)N(c1ccc(F)c(F)c1)c1nc(N)c(C(=O)c2cccnc2)s1 (racemic) [Example 184, rac-2-(N-[4-amino-5-(pyridine-3-carbonyl)thiazol-2-yl]-3,4-difluoro-anilino)propanamide] was tested, and the IC50 was 428 nM.
Compound CC(C(N)=O)N(c1ccc(OCc2ccccc2)cc1)c1nc(N)c(C(=O)c2ccc(OC(F)F)cc2)s1 (single isomer, unassigned) [Example 182.1, 2-(N-[4-amino-5-[4-(difluoromethoxy)benzoyl]thiazol-2-yl]-4-benzyloxy-anilino)propanamide] has an IC50 of 84 nM.
For CC(C(N)=O)N(c1ccc(F)cc1)c1nc(N)c(C(=O)c2ccc(N3CCC(C)(C#N)CC3)nc2)s1 (single isomer, unassigned; enantiomer 2) [Example 285.2, 2-(N-[4-amino-5-[6-(4-cyano-4-methyl-1-piperidyl)pyridine-3-carbonyl]thiazol-2-yl]-4-fluoro-anilino)propanamide (enantiomer 2)], the IC50 was 432 nM.
CC(C(N)=O)N(c1ccc(C#N)cc1)c1nc(N)c(C(=O)c2ccccc2)s1 (racemic) [Example 9, rac-2-(N-(4-amino-5-benzoyl-thiazol-2-yl)-4-cyano-anilino)propanamide] showed an IC50 of 536 nM.
With CC(C(N)=O)N(c1ccc(F)cc1)c1nc(N)c(C(=O)c2cccc(C#N)c2)s1 (racemic) [Example 12, rac-2-(N-[4-amino-5-(3-cyanobenzoyl)thiazol-2-yl]-4-fluoro-anilino)propanamide] the IC50 was 364 nM.
COc1ccc(C(=O)c2sc(N(c3ccc(OC(F)F)c(Cl)c3)C(C)C(N)=O)nc2N)cc1 (racemic) [Example 200, rac-2-[N-[4-amino-5-(4-methoxybenzoyl)thiazol-2-yl]-3-chloro-4-(difluoromethoxy)anilino]propanamide] gave an IC50 of 70 nM.
With CC(C(N)=O)N(c1ccc(F)cc1)c1nc(N)c(C(=O)c2ccnc(Cl)c2)s1 (racemic) [Example 186, rac-2-(N-[4-amino-5-(2-chloropyridine-4-carbonyl)thiazol-2-yl]-4-fluoro-anilino)propanamide] the IC50 was 392 nM.
In the case of CC(C(N)=O)N(c1ccc2c(c1)OC(F)(F)O2)c1nc(N)c(C(=O)c2ccc(OC(F)F)cc2)s1 (racemic) [Example 214, rac-2-[[4-amino-5-[4-(difluoromethoxy)benzoyl]thiazol-2-yl]-(2,2-difluoro-1,3-benzodioxol-5-yl)amino]propanamide], the IC50 is reported as 16 nM.
CC(C(N)=O)N(c1ccc(F)cc1)c1nc(N)c(C(=O)c2ccc(NC(=O)OCc3ccccc3)cc2)s1 (racemic) [Example 169, rac-benzyl N-[4-[4-amino-2-(N-(2-amino-1-methyl-2-oxo-ethyl)-4-fluoro-anilino)thiazole-5-carbonyl]phenyl]carbamate] showed an IC50 of 3 nM.
Work on CC(C(N)=O)N(c1ccc2c(c1)OC(F)(F)O2)c1nc(N)c(C(=O)c2ccc(Cl)cc2)s1 (racemic) [Example 213, rac-2-[[4-amino-5-(4-chlorobenzoyl)thiazol-2-yl]-(2,2-difluoro-1 ,3-benzodioxol-5-yl)amino]propanamide] yielded an IC50 of 42 nM.
Cc1ccccc1CNC(=O)COc1ccc(C(=O)c2sc(N(c3ccc(F)cc3)C(C)C(N)=O)nc2N)cc1 (racemic) [Example 84, rac-2-(N-[4-amino-5-[4-[2-(o-tolylmethylamino)-2-oxo-ethoxy]benzoyl]thiazol-2-yl]-4-fluoro-anilino)propanamide] was tested, and the IC50 was 24.6 nM.
For CC(C(N)=O)N(c1ccc(F)cc1)c1nc(N)c(C(=O)c2ccc(OCC(=O)NCc3ccc(F)cc3)cc2)s1 (racemic) [Example 97, rac-2-(N-[4-amino-5-[4-[2-[(4-fluorophenyl)methylamino]-2-oxo-ethoxy]benzoyl]thiazol-2-yl]-4-fluoro-anilino)propanamide], the IC50 was 24.7 nM.
CC(C(N)=O)N(c1nc(N)c(C(=O)c2ccc(OC(F)F)cc2)s1)c1ccc(Cl)cc1F (single isomer, unassigned) [Example 46.1, 2-(N-[4-amino-5-[4-(difluoromethoxy)benzoyl]thiazol-2-yl]-4-chloro-2-fluoro-anilino)propanamide] was tested, and the IC50 was 1470 nM.
CC(C(N)=O)N(c1ccc(OC(F)F)c(F)c1)c1nc(N)c(C(=O)c2ccc(OC(F)F)cc2)s1 (racemic) [Example 207, rac-2-[N-[4-amino-5-[4-(difluoromethoxy)benzoyl]thiazol-2-yl]-4-(difluoromethoxy)-3-fluoro-anilino]propanamide] showed an IC50 of 22 nM.
In the case of CC(C(N)=O)N(c1ccc(F)cc1)c1nc(N)c(C(=O)c2ccc(O)cc2)s1 (racemic) [Example 157, rac-2-(N-[4-amino-5-(4-hydroxybenzoyl)thiazol-2-yl]-4-fluoro-anilino)propanamide], the IC50 is reported as 190 nM.
CC(C(N)=O)N(c1ccc(C(F)(F)F)cc1)c1nc(N)c(C(=O)c2ccccc2)s1 (racemic) [Example 28, rac-2-[N-(4-amino-5-benzoyl-thiazol-2-yl)-4-(trifluoromethyl)anilino]propanamide] showed an IC50 of 61 nM.
